pIC50: −log10 of the molar value.

Chain of GMPPNP-loaded KRAS G12C (P01116 1-188 isoform P01116-2 G12C): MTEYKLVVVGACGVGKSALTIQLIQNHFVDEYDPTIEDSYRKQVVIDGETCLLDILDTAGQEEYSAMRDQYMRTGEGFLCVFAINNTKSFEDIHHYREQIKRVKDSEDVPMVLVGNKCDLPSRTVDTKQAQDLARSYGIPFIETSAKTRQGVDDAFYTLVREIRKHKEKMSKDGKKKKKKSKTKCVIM

This assay deals with GMPPNP-loaded KRAS G12C (Homo sapiens, UniProt P01116, G12C). The assay can be described thus: KRAS G12C RAF Disruption Assay (HTRF). Format: biochemical. As to conditions: recombinant GMPPNP-loaded KRAS G12C (5 nM), 20 min with compound; GST-RAF1 RBD (9 nM); HTRF signal; read-out: KRASG12C RAF Disruption Assay (IC50). The procedure:
KRAS^G12C RAF Disruption Assay
This is a functional assay that measures activity of compounds against KRAS-G12C^(ON), i.e., the active form of KRAS G12C. Recombinant GMPPNP-loaded KRAS G12C (5 nM) was treated with compound at room temperature for 20 minutes in assay buffer (50 mM Tris pH 7.5, 100 mM NaCl, 1 mM MgCl2, 1 mM DTT, 100ug/ml BSA). Recombinant GST-RAF1 RBD (9 nM) was added, and the reaction mixture was incubated for 20 minutes. SA-Tb (0.25 nM) was added, and the reaction mixture was incubated for 3 hours. HTRF signal was measured (PerkinElmer Envision), the signal ratio (λem 520/λem 495) was calculated, and IC50 values were calculated from the dose-response curve.
A general note: Time-resolved FRET reads energy transfer from a long-lived donor to a nearby acceptor.
Usually pIC50 stands for the IC50 on a negative log10 scale, so that one unit is a factor of ten. Consider `C#Cc1c(F)ccc2cc(O)cc(-c3ncc4c(N5C[C@H]6CC[C@@H](C5)N6C(=O)/C(F)=C/c5cccnn5)nc(OC[C@@]56CCCN5C[C@H](F)C6)nc4c3F)c12` [Compound 12, (Z)-1-((1R, 5S)-3-(7-(8-ethynyl-7-fluoro-3-hydroxynaphthalen-1-yl)-8-fluoro-2-(((2R, 7aS)-2-fluorotetrahydro-1H-pyrrolizin-7a(5H)-yl)methoxy)pyrido[4,3-d]pyrimidin-4-yl)-3,8-diazabicyclo[3.2.1]octan-8-yl)-2-fluoro-3-(pyridazin-3-yl)prop-2-en-1-one], for which the pIC50 is 7.96.
`C#Cc1c(F)ccc2cc(O)cc(-c3ncc4c(N5CCN(C(=O)/C(F)=C/c6ncccn6)CC5)nc(OC[C@@]56CCCN5C[C@H](F)C6)nc4c3F)c12` [Example 57, (Z)-1-(4-(7-(8-ethynyl-7-fluoro-3-hydroxynaphthalen-1-yl)-8-fluoro-2-(((2R, 7aS)-2-fluorotetrahydro-1H-pyrrolizin-7a(5H)-yl)methoxy)pyrido[4,3-d]pyrimidin-4-yl)piperazin-1-yl)-2-fluoro-3-(pyrimidin-2-yl)prop-2-en-1-one]: the pIC50 is 8.40.
With `N#CC[C@H]1CN(c2nc(OC[C@@]34CCCN3C[C@H](F)C4)nc3c(F)c(-c4ccccc4C4CCC4)ncc23)CCN1C(=O)/C(F)=C/c1nccs1` [Compound 82, 2-((2S)-4-(7-(2-cyclobutylphenyl)-8-fluoro-2-(((2R, 7aS)-2-fluorotetrahydro-1H-pyrrolizin-7a(5H)-yl)methoxy)pyrido[4,3-d]pyrimidin-4-yl)-1-((Z)-2-fluoro-3-(thiazol-2-yl)acryloyl)piperazin-2-yl)acetonitrile] the figure was 7.21; with `C#Cc1cccc2cccc(-c3ncc4c(N5CCC6C5CCN6C(=O)/C(F)=C/c5ccccn5)nc(OC[C@@]56CCCN5C[C@H](F)C6)nc4c3F)c12` (single isomer, unassigned) [Compound 108], 5.37; with `C#Cc1cccc2c(F)ccc(-c3ncc4c(N5CCN(C(=O)/C(F)=C/c6ncccn6)CC5)nc(OC[C@@]56CCCN5C[C@H](F)C6)nc4c3F)c12` [Compound 88, (Z)-1-(4-(7-(8-ethynyl-4-fluoronaphthalen-1-yl)-8-fluoro-2-(((2R, 7aS)-2-fluorotetrahydro-1H-pyrrolizin-7a(5H)-yl)methoxy)pyrido[4,3-d]pyrimidin-4-yl)piperazin-1-yl)-2-fluoro-3-(pyrimidin-2-yl)prop-2-en-1-one], 6.00.
As for `C#Cc1cccc2cccc(-c3ncc4c(N5CCC6(CCN6C(=O)/C(F)=C/c6nccs6)C5)nc(OC[C@@]56CCCN5C[C@H](F)C6)nc4c3F)c12` (single isomer, unassigned) [Compound 103], the figure is 6.21; as for `C#Cc1c(F)ccc2cc(O)cc(-c3ncc4c(N5CCN(C(=O)/C(F)=C/c6nccs6)CC5)nc(OC[C@]56CCC[C@H]5N(C)CCC6)nc4c3F)c12` [Example 58, (Z)-1-(4-(7-(8-ethynyl-7-fluoro-3-hydroxynaphthalen-1-yl)-8-fluoro-2-(((4aS, 7aR)-1-methyloctahydro-4aH-cyclopenta[b]pyridin-4a-yl)methoxy)pyrido[4,3-d]pyrimidin-4-yl)piperazin-1-yl)-2-fluoro-3-(thiazol-2-yl)prop-2-en-1-one], 8.70.
As for `N#CC[C@H]1CN(c2nc(OC[C@@]34CCCN3C[C@H](F)C4)nc3c(F)c(N4CCOc5cccc(F)c54)ncc23)CCN1C(=O)/C(F)=C/c1nccs1` [Example 61, 2-((S)-1-((Z)-2-fluoro-3-(thiazol-2-yl)acryloyl)-4-(8-fluoro-7-(5-fluoro-2,3-dihydro-4H-benzo[b][1,4]oxazin-4-yl)-2-(((2R, 7aS)-2-fluorotetrahydro-1H-pyrrolizin-7a(5H)-yl)methoxy)pyrido[4,3-d]pyrimidin-4-yl)piperazin-2-yl)acetonitrile], the figure is 6.52.
For `CN1CCC[C@H]1COc1nc(N2CCN(C(=O)/C(F)=C/c3nccs3)CC2)c2cnc(-c3cccc4cccc(Cl)c34)c(F)c2n1` [Compound 22, (S,Z)-1-(4-(7-(8-chloronaphthalen-1-yl)-8-fluoro-2-((1-methylpyrrolidin-2-yl)methoxy)pyrido[4,3-d]pyrimidin-4-yl)piperazin-1-yl)-2-fluoro-3-(thiazol-2-yl)prop-2-en-1-one], the pIC50 was 5.72.
For `C#Cc1c(F)ccc2cc(O)cc(-c3ncc4c(N5C[C@H]6CC[C@@H](C5)N6C(=O)/C(F)=C/c5ccccn5)nc(OC[C@@]56CCCN5C[C@H](F)C6)nc4c3F)c12` [Compound 2, (Z)-1-((1R, 5S)-3-(7-(8-ethynyl-7-fluoro-3-hydroxynaphthalen-1-yl)-8-fluoro-2-(((2R, 7aS)-2-fluorotetrahydro-1H-pyrrolizin-7a(5H)-yl)methoxy)pyrido[4,3-d]pyrimidin-4-yl)-3,8-diazabicyclo[3.2.1]octan-8-yl)-2-fluoro-3-(pyridin-2-yl)prop-2-en-1-one], the pIC50 is 7.49.
With `C#Cc1cccc2cccc(-c3ncc4c(N5CCCN(C(=O)/C(F)=C/c6nccs6)CC5)nc(OC[C@@]56CCCN5C[C@H](F)C6)nc4c3F)c12` [Compound 78, (Z)-1-(4-(7-(8-ethynylnaphthalen-1-yl)-8-fluoro-2-(((2R, 7aS)-2-fluorotetrahydro-1H-pyrrolizin-7a(5H)-yl)methoxy)pyrido[4,3-d]pyrimidin-4-yl)-1,4-diazepan-1-yl)-2-fluoro-3-(thiazol-2-yl)prop-2-en-1-one] the figure was 6.92.
For the compound `C#Cc1cccc2cccc(-c3ncc4c(N5CCC6(CCN6C(=O)/C(F)=C/c6ccccn6)C5)nc(OC[C@@]56CCCN5C[C@H](F)C6)nc4c3F)c12` (single isomer, unassigned) [Compound 104], the pIC50 was 4.80.
As for `C#Cc1c(F)ccc2cc(O)cc(-c3ncc4c(N5C[C@@]6(NC(=O)/C(F)=C/c7ccccn7)CC[C@@H]5C6)nc(OC[C@@]56CCCN5C[C@H](F)C6)nc4c3F)c12` [Compound 13, (Z)—N-((1R, 4R)-2-(7-(8-ethynyl-7-fluoro-3-hydroxynaphthalen-1-yl)-8-fluoro-2-(((2R, 7aS)-2-fluorotetrahydro-1H-pyrrolizin-7a(5H)-yl)methoxy)pyrido[4,3-d]pyrimidin-4-yl)-2-azabicyclo[2.2.1]heptan-4-yl)-2-fluoro-3-(pyridin-2-yl)acrylamide], the figure is 7.42; as for `C#Cc1cccc2cccc(-c3ncc4c(N5CCC6(CCN6C(=O)/C(F)=C/c6ncccn6)C5)nc(OC[C@@]56CCCN5C[C@H](F)C6)nc4c3F)c12` (single isomer, unassigned) [Compound 105], 5.01.
As for `C#Cc1cccc2cccc(-c3ncc4c(N5C[C@H](C)N(C(=O)/C(F)=C/c6ccccn6)C[C@H]5C)nc(OC[C@@]56CCCN5C[C@H](F)C6)nc4c3F)c12` [Compound 83, (Z)-1-((2S,5R)-4-(7-(8-ethynylnaphthalen-1-yl)-8-fluoro-2-(((2R, 7aS)-2-fluorotetrahydro-1H-pyrrolizin-7a(5H)-yl)methoxy)pyrido[4,3-d]pyrimidin-4-yl)-2,5-dimethylpiperazin-1-yl)-2-fluoro-3-(pyridin-2-yl)prop-2-en-1-one], the figure is 5.59; as for `Cn1ncc2cccc(-c3ncc4c(N5CCN(C(=O)/C(F)=C/c6ccccn6)CC5)nc(OC[C@@]56CCCN5C[C@H](F)C6)nc4c3F)c21` [Example 38, (Z)-2-fluoro-1-(4-(8-fluoro-2-(((2R, 7aS)-2-fluorotetrahydro-1H-pyrrolizin-7a(5H)-yl)methoxy)-7-(1-methyl-1H-indazol-7-yl)pyrido[4,3-d]pyrimidin-4-yl)piperazin-1-yl)-3-(pyridin-2-yl)prop-2-en-1-one], 5.33.
Turning to `C#Cc1cccc2cccc(-c3ncc4c(N(C)C5CCN(C(=O)/C(F)=C/c6nccs6)CC5)nc(OC[C@@]56CCCN5C[C@H](F)C6)nc4c3F)c12` [Compound 132, (Z)-1-(4-((7-(8-ethynylnaphthalen-1-yl)-8-fluoro-2-(((2R, 7aS)-2-fluorotetrahydro-1H-pyrrolizin-7a(5H)-yl)methoxy)pyrido[4,3-d]pyrimidin-4-yl)(methyl)amino)piperidin-1-yl)-2-fluoro-3-(thiazol-2-yl)prop-2-en-1-one], the negative-log IC50 (pIC50) was 4.77.
As for `N#CC[C@H]1CN(c2nc(OC[C@@]34CCCN3C[C@H](F)C4)nc3c(F)c(-c4csc5ccccc45)ncc23)CCN1C(=O)/C(F)=C/c1ccccn1` [Example 35, 2-((S)-4-(7-(benzo[b]thiophen-3-yl)-8-fluoro-2-(((2R, 7aS)-2-fluorotetrahydro-1H-pyrrolizin-7a(5H)-yl)methoxy)pyrido[4,3-d]pyrimidin-4-yl)-1-((Z)-2-fluoro-3-(pyridin-2-yl)acryloyl)piperazin-2-yl)acetonitrile], the figure is 6.37; as for `C#Cc1cccc2cccc(-c3ncc4c(N5CCN(C(=O)/C(F)=C/c6nccs6)C[C@@H]5C)nc(OC[C@@]56CCCN5C[C@H](F)C6)nc4c3F)c12` [Example 62, (Z)-1-((S)-4-(7-(8-ethynylnaphthalen-1-yl)-8-fluoro-2-(((2R, 7aS)-2-fluorotetrahydro-1H-pyrrolizin-7a(5H)-yl)methoxy)pyrido[4,3-d]pyrimidin-4-yl)-3-methylpiperazin-1-yl)-2-fluoro-3-(thiazol-2-yl)prop-2-en-1-one], 6.52.

For the origin of these results see patent publication US20240067662A1, “KRAS INHIBITORS” (Bristol-Myers Squibb Company, priority 2022, published 2024).
